In patent US8513228B2, “Crystalline form of antiprogestin CDB-4124” (Richter Gedeon Nyrt., priority 2009, dated 2013):

How the values were obtained:
[1] = Water adsorption properties by dynamic vapour sorption (DVS); type: physicochemical
Experimental: From the examination of water adsorption properties important conclusions can be made about the physical and chemical stability of a compound. Amorphous compounds can adsorb more water from the air. This property is deliberately disadvantageous during the preparation process of a pharmaceutical composition, since the real amount of the active ingredient can't be measured because of the adsorbed water.
Water adsorption properties of the compounds were measured by dynamic vapour sorption technique (DVS). […]

[2] = Fast Stability Test (solid stored on a plate at 40° C. in air, impurity by HPLC); type: physicochemical; conditions: for N-demethyl-derivative of CDB-4124: largest degradation product; for N-demethyl-derivative of CDB-4124 / Impurity: HPLC; for Impurity: stored on a plate at 40° C. in the presence of air
Experimental: Amorphous and crystalline forms were stored on a plate at 40° C. in the presence of air for 10 days. Impurity was measured at different times using HPLC equipment. […]

Row | SMILES | water adsorbed (max.) ([1]; DVS, 25° C., 0%-90% relative humidity, as humidity was increased) [m/m %] | stability (purity examination) ([2]; 40° C., air, 10 days, compared with amorphous form) | N-demethyl-derivative of CDB-4124 ([2]; Day 0, 40° C., air) [%] | Impurity ([2]; Day 0) [%] | N-demethyl-derivative of CDB-4124 ([2]; Day 1, 40° C., air) [%] | Impurity ([2]; Day 1) [%] | N-demethyl-derivative of CDB-4124 ([2]; Day 2, 40° C., air) [%] | Impurity ([2]; Day 2) [%] | Impurity ([2]; Day 6) [%] | N-demethyl-derivative of CDB-4124 ([2]; Day 10, 40° C., air) [%] | Impurity ([2]; Day 10) [%] | mass change as the degree of humidity was increased ([1]; DVS, 25° C., 0%-90% relative humidity) | physical stability on change in relative humidity ([1]; room-temperature, independently of a change in relative humidity)
1 | COCC(=O)[C@@]1(OC(C)=O)CC[C@H]2[C@@H]3CCC4=CC(=O)CCC4=C3[C@@H](c3ccc(N(C)C)cc3)C[C@@]21C [Amorphous form, 17α-acetoxy-21-methoxy-11β-[4-N,N-dimethylaminophenyl]-19-norpregna-4,9-diene-3,20-dione, reference compound] | 2 |  |  |  |  |  |  |  |  |  |  |  | 
2 | COCC(=O)[C@@]1(OC(C)=O)CC[C@H]2[C@@H]3CCC4=CC(=O)CCC4=C3[C@@H](c3ccc(N(C)C)cc3)C[C@@]21C [Form A, 17α-acetoxy-21-methoxy-11β-[4-N,N-dimethylaminophenyl]-19-norpregna-4,9-diene-3,20-dione] |  | much better than that of the amorphous form | 0.18 | 0.33 | 0.18 | 0.33 | 0.18 | 0.35 | 0.43 | 0.23 | 0.48 | barely changed | stable anhydrate
